Assay results from patent US20250082656A1, “DOSAGE REGIMENS FOR TREATMENT OF DENGUE INFECTION” (Atea Pharmaceuticals, Inc., priority 2022, published 2025).
In brackets after ≈: the same amount, converted by molar mass.

How the values were obtained:
Herpes simplex-1 = test: Antiviral specificity panel, Herpes simplex-1; assay type: cell-based; settings: DNA virus, Vero
Dengue-3 (DENV-3) = test: Neutral red assay of virus-induced CPE, DENV-3; assay type: cell-based; settings: DENV3, Huh-7
[1] = Bone marrow progenitor cell assay, erythroid (E); settings: human, erythroid (E) human bone marrow progenitor cells
DENV-3 = test: microbe, parasite or virus in culture; settings: Dengue virus, DENV3, Huh-7
DENV-2 = test: microbe, parasite or virus in culture; settings: Dengue virus, DENV2, Huh-7
Dengue-2 (DENV-2) [2] = test: Virus yield reduction (VYR) assay, DENV-2; assay type: cell-based
West Nile (WNV) = test: Neutral red assay of virus-induced CPE, WNV; assay type: cell-based; settings: Kern 515, WNo2, Huh-7, neutral red assay
clinical = settings: both, human, in vivo, steady-state, human plasma, mean±SD; for AUC: AUCtau
[3] = Bone marrow progenitor cell assay, granulocyte macrophage (GM); settings: human
Huh-7 cells = test: Cytotoxicity in uninfected Huh-7 cells; settings: Table 1A, Huh-7 incubated without virus, parallel to the virus of the line; highest concentration tested
[4] = Cytotoxicity in uninfected Huh-7 cells; settings: human, Huh-7 cells, uninfected
DENV-4 = test: microbe, parasite or virus in culture; settings: Dengue virus, DENV4, Huh-7
DENV-1 = test: Antiviral assay with FC read-out, DENV-1; assay type: cell-based; settings: Dengue virus, DENV1; DENV-1 WP74, Huh-7, FC read-out
Adenovirus = test: Antiviral specificity panel, Adenovirus; assay type: cell-based; settings: unidentified adenovirus; DNA virus, Vero
Japanese encephalitis = test: Neutral red assay of virus-induced CPE, JEV; assay type: cell-based; settings: SA-14, Huh-7, neutral red assay
in vitro = settings: hamster
Dengue-2 (DENV-2) [5] = test: Neutral red assay of virus-induced CPE, DENV-2; assay type: cell-based; settings: DENV2, DENV-2 New Guinea C (NGC), Huh-7, neutral red (NR) assay
DENV2 NS5 [6] = biological target: T1, DENV2 NS5 (Dengue virus type 2, UniProt P14340); test: Thermal shift assay, DENV2 NS5; settings: read-out: ΔTM
DENV2 NS5 [7] = biological target: T1, DENV2 NS5; test: Nucleotide analogue incorporation / discrimination assay, DENV2 NS5; assay type: biochemical
Protocol: (§1) The chain-terminating efficiency of Compound 5 was measured in competitive nucleotide incorporation assays using all four DENV serotypes. […] In comparison, sofosbuvir triphosphate is incorporated into the RNA less than 1 time for every 100 UTP (native uridine triphosphate) incorporations.
The experimental procedure is provided in Example 10.
(§2) Measurements and quantitations were as in FIG. 19B.
DENV NS5 was preincubated with the annealed P10/T20 RNA in an assembly buffer containing 20 mM HEPES pH 7.5, 10% glycerol, 5 mM MgCl2 and 5 mM DTT for 10 min at 30° C. to create an active RNA elongation complex. Reactions were started by adding AT-9010 with either all four NTPs, or UTP, ATP and CTP only. […] Reactions were quenched at indicated timepoints in 2× volume FBD stop solution (formamide, 10 mM EDTA) and analysed on 20% acrylamide:bisacrylamide (19:1), […] sequencing gels. RNA products were visualized using a Typhoon FluorImager and analyzed using ImageQuant software.
(§3) DENV NS5 was pre-incubated with the annealed P10/T20 RNA in an assembly buffer containing 20 mM HEPES pH 7.5, 10% glycerol, 5 mM MgCl2, and 5 mM DTT for 10 min at 30° C. to create an active RNA elongation complex.
(§4) Reactions were started by adding AT-9010 with either all four NTPs or UTP, ATP, and CTP only.
(§5) Single nucleotide incorporation was tested as follows. Reactions were started by adding the corresponding NTP or analogue. Final concentrations were 1 μM NS5, 0.25 μM P10/T20, 100 μM NTP or analogue in a final buffer containing 20 mM HEPES pH 7.5, 15% glycerol, 5 mM MgCl2, and 5 mM DTT.
(§6) Reactions were quenched at the designated time points in 3× volume FBD stop solution (formamide, 10 mM EDTA) and analyzed on 20% acrylamide-bisacrylamide (19:1) […] sequencing gels. RNA products were visualized using a Typhoon FluorImager then analyzed and quantified using ImageQuant software.

[8] = biological target: human cellular DNA-dependent DNA polymerase γ (Homo sapiens, UniProt P54098); settings: previously shown (Good et al.); read-out: estimated IC50; cited from earlier work
DENV2 MTase domain = DENV2 MTase domain (Dengue virus type 2, UniProt P14340); test: Thermal shift assay, DENV2 MTase domain; settings: read-out: ΔTM
[9] = 10 μM Compound 1 for 6 h, peak at 10 h after initiation of exposure
DENV3 RdRp domain = test: Thermal shift assay, DENV3 RdRp domain; settings: RdRp domain DENV3, 100 μM compound
DENV3 NS5 = DENV3 NS5 (Dengue virus type 3, UniProt Q6YMS4); test: Nucleotide analogue incorporation / discrimination assay, DENV3 NS5; assay type: biochemical; settings: GTP for AT-9010 and AT-9002, UTP for SOF-TP
Protocol: as §1, §2, §3, §4, §5, §6

Chain of DENV2 MTase domain (P14340 2493-2755 limits assumed): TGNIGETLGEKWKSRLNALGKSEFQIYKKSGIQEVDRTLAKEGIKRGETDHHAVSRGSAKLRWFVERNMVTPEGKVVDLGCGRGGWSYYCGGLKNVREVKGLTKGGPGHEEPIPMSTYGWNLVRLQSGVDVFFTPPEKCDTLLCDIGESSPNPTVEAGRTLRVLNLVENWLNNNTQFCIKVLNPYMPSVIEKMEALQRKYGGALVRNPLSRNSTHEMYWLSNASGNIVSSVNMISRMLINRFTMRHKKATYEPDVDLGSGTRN
Chain of human cellular DNA-dependent DNA polymerase γ (P54098 whole entry, the tested form may be a part): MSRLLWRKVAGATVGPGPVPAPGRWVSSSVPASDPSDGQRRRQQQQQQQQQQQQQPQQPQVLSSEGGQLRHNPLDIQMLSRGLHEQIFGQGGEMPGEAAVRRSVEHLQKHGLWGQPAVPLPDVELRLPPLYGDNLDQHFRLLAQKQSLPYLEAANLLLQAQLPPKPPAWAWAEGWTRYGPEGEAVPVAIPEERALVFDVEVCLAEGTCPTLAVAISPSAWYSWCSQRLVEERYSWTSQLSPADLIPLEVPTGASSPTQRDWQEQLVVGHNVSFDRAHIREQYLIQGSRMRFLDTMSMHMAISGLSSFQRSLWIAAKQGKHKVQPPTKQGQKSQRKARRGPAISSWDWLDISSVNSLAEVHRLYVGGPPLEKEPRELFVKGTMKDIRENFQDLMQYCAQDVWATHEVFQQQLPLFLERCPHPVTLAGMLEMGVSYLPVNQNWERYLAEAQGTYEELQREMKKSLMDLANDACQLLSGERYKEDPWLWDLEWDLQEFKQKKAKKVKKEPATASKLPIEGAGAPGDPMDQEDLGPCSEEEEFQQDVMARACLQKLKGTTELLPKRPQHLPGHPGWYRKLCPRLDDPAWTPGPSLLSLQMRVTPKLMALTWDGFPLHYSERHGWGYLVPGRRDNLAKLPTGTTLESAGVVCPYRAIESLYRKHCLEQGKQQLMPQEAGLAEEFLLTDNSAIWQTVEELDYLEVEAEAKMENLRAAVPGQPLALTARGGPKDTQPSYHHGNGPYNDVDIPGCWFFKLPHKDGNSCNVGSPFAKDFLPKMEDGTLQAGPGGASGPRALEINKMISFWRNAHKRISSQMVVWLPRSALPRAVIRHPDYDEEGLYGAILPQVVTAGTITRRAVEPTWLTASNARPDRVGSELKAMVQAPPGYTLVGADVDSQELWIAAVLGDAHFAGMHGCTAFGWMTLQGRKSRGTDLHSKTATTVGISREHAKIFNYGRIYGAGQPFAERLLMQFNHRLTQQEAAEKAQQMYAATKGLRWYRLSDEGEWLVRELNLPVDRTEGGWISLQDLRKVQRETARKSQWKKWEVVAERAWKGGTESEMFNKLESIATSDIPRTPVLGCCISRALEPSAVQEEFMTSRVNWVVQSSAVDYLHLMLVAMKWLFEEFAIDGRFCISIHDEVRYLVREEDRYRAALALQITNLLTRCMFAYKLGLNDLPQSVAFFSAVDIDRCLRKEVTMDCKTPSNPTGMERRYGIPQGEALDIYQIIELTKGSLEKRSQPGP
Chain of DENV3 NS5 (Q6YMS4 2491-3390): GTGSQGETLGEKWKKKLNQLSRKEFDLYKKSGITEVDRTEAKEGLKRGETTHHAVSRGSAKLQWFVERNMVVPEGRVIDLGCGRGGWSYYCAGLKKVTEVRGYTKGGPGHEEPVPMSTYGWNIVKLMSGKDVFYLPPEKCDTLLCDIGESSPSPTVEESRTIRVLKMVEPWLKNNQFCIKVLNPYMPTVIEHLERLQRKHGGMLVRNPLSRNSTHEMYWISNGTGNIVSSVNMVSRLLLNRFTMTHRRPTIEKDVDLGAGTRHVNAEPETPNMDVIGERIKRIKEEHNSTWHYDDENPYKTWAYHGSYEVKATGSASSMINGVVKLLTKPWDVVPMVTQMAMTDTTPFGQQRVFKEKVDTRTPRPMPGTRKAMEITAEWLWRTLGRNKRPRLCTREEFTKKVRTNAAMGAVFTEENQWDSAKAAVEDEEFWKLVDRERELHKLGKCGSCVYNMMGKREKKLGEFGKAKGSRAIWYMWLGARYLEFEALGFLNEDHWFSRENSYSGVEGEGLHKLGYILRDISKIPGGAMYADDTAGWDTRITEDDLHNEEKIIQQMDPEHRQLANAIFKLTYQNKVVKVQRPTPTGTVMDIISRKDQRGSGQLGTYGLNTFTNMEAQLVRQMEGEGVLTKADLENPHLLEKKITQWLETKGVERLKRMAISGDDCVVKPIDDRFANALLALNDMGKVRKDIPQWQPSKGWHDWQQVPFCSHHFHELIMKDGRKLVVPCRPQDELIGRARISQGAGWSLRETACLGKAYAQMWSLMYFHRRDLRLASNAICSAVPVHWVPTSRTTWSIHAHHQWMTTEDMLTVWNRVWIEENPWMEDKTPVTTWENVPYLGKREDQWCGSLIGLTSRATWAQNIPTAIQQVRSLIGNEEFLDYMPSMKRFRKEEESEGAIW

Compound: CNc1nc(N)nc2c1ncn2[C@@H]1O[C@H](CO[P@](=O)(N[C@@H](C)C(=O)OC(C)C)Oc2ccccc2)[C@@H](O)[C@@]1(C)F [Compound 1, isopropyl ((R)-(((2R,3R,4R,5R)-5-(2-amino-6-(methylamino)-9H-purin-9-yl)-4-fluoro-3-hydroxy-4-methyltetrahydrofuran-2-yl)methoxy)(phenoxy)phosphoryl)-L-alaninate]
- EC50 (Herpes simplex-1): > 100000 nM
- EC50 (Dengue-3 (DENV-3)): 770 nM
- CC50 at 14 days [1]: > 100000 nM
- EC50 (DENV-3): 750 nM
- EC50 (DENV-2): 300 nM
- EC50 (Dengue-2 (DENV-2) [2]; DENV2, BHK-21): 6500 nM
- EC50 (Dengue-2 (DENV-2) [2]; DENV2, Huh-7): 640 nM
- EC90 (Dengue-2 (DENV-2) [2]; DENV2, read-out: EC90 against Dengue serotype 2): ~0.2 µg/mL (≈ 0.344 µM)
- EC50 (West Nile (WNV)): 1410 nM
- AUC (clinical; 750 mg, Compound 2 750 mg BID): 2610 ± 640 ng·h/mL
- AUC (clinical; 750 mg, Compound 2 750 mg TID): 2540 ± 572 ng·h/mL
- Cmax (clinical; 750 mg, Compound 2 750 mg BID): 3490 ± 1280 ng/mL
- Cmax (clinical; 750 mg, Compound 2 750 mg TID): 3010 ± 754 ng/mL
- AUC (clinical; 1000 mg, Compound 2 1000 mg QD): 3090 ± 1530 ng·h/mL
- Cmax (clinical; 1000 mg, Compound 2 1000 mg QD): 3810 ± 1670 ng/mL
- CC50 at 14 days [3]: > 100000 nM
- CC50 (Huh-7 cells): > 170000 nM
- CC50 [4]: > 100000 nM
- EC50 (DENV-4): 570 nM
- EC50 (DENV-1): 150 nM
- EC50 (Adenovirus): > 100000 nM
- EC50 (Japanese encephalitis): 210 nM
- CC50 (in vitro): > 170000 nM
- EC50 (Dengue-2 (DENV-2) [5]): 480 nM

Compound: C[C@@]1(F)[C@H](O)[C@@H](COP(=O)(O)OP(=O)(O)OP(=O)(O)O)O[C@H]1n1cnc2c(=O)[nH]c(N)nc21 [Compound 5]
- ΔTm at 100 µM (DENV2 NS5 [6]): 6 ± 0.1 °C
- Preference (discrimination) native nucleotide > analogue (DENV2 NS5 [7]; DENV2, GTP for AT-9010 and AT-9002, UTP for SOF-TP): 9.3 ± 0.1
- discrimination factor (preference for GTP>Compound 5) (DENV2 NS5 [7]; DENV-2 NS5, all four NTPs, band product intensities): 12.6±4.3
- effect on RNA synthesis after incorporation (DENV2 NS5 [7]; absence of GTP, next correct nucleotide (UTP) present): immediate chain-termination of RNA synthesis
- IC50 [8]: > 100000 nM
- ΔTm at 100 µM (DENV2 MTase domain): 4 ± 0.1 °C
- mean peak concentration of AT-9010 in PBMCs [9]: 1.88±0.01 pmol/10^6 cells
- ΔTM (DENV3 RdRp domain): 3.2 ± 0.1 °C
- Preference (discrimination) native nucleotide > analogue (DENV3 NS5): 11.6 ± 1.3
